Assays:
Pro-neuropeptide Y [1] = target: Pro-neuropeptide Y (Rattus norvegicus, UniProt P07808)
Pro-neuropeptide Y [2] = target: Pro-neuropeptide Y (Homo sapiens, UniProt P01303)

Compound | Ki (Pro-neuropeptide Y [1]) [nM] | Ki (Pro-neuropeptide Y [2]) [nM]
CC[C@H](C)[C@H](NC(=O)[C@H](Cc1ccc(O)cc1)NC(=O)[C@H](CCCNC(=N)N)NC(=O)[C@H](CCCNC(=N)N)NC(=O)[C@H](CC(C)C)NC(=O)[C@H](CC(=O)O)NC(=O)[C@H](C)NC(=O)[C@H](C)NC(=O)[C@H](Cc1ccc(O)cc1)NC(=O)[C@H](CCC(N)=O)NC(=O)[C@H](C)NC(=O)[C@H](CCSC)NC(=O)[C@H](CCC(N)=O)NC(=O)[C@H](CCC(=O)O)NC(=O)[C@@H]1CCCN1C(=O)[C@@H](NC(=O)[C@H](C)NC(=O)[C@H](CC(N)=O)NC(=O)[C@H](CC(=O)O)NC(=O)CNC(=O)[C@@H]1CCCN1C(=O)[C@H](Cc1ccc(O)cc1)NC(=O)[C@@H](NC(=O)[C@@H]1CCCN1C(=O)[C@H](CCC(=O)O)NC(=O)[C@H](CC(C)C)NC(=O)[C@@H]1CCCN1C(=O)[C@H](C)N)C(C)C)[C@@H](C)O)C(=O)N[C@@H](CC(N)=O)C(=O)N[C@@H](CCSC)C(=O)N[C@@H](CC(C)C)C(=O)N[C@H](C(=O)N[C@@H](CCCNC(=N)N)C(=O)N1CCC[C@H]1C(=O)N[C@@H](CCCNC(=N)N)C(=O)N[C@@H](Cc1ccc(O)cc1)C(N)=O)[C@@H](C)O [CAS_59763-91-6] | 0.3 | 1.9
H-APLEPEYPGDNATPEQMAQYAAELRRYINMLTRPRY-NH2 [CAS_59763-91-6] | – | 2.3
CC[C@H](C)[C@H](NC(=O)[C@H](Cc1ccc(O)cc1)NC(=O)[C@H](CCCNC(=N)N)NC(=O)[C@H](CCCNC(=N)N)NC(=O)[C@H](CC(C)C)NC(=O)[C@H](CCC(N)=O)NC(=O)[C@@H](NC(=O)[C@H](CCC(=O)O)NC(=O)[C@H](Cc1ccc(O)cc1)NC(=O)[C@H](CCC(N)=O)NC(=O)[C@H](C)NC(=O)[C@H](CCCNC(=N)N)NC(=O)[C@H](CCC(N)=O)NC(=O)[C@H](CCC(=O)O)NC(=O)[C@H](Cc1c[nH]cn1)NC(=O)[C@@H](NC(=O)[C@H](C)NC(=O)[C@H](Cc1ccc(O)cc1)NC(=O)[C@H](CC(=O)O)NC(=O)CNC(=O)[C@@H]1CCCN1C(=O)[C@H](Cc1ccc(O)cc1)NC(=O)[C@H](CCSC)NC(=O)[C@@H]1CCCN1C(=O)[C@H](CCC(=O)O)NC(=O)[C@H](CC(C)C)NC(=O)[C@@H]1CCCN1C(=O)[C@H](C)N)[C@@H](C)O)[C@@H](C)O)C(=O)N[C@@H](CC(N)=O)C(=O)N[C@H](C(=O)N[C@@H](CC(C)C)C(=O)N[C@H](C(=O)N[C@@H](CCCNC(=N)N)C(=O)N1CCC[C@H]1C(=O)N[C@@H](CCCNC(=N)N)C(=O)N[C@@H](Cc1ccc(O)cc1)C(N)=O)[C@@H](C)O)[C@@H](C)O [NSC_41735] | 0.4 | 139

— BindingDB's records for doi:10.1073/pnas.93.10.4661 (Amgen, 1996)
